Measurements taken from patent US11464770B2, “Anticancer pharmaceutical composition” (NATIONAL CANCER CENTER, priority 2016, dated 2022).
Like-named read-outs stand apart in the source and are kept apart here.

Legend:
[1] = tested on: cervical carcinoma cell lines; test: Cell based assay, cell viability (CellTiter-Glo), cervical carcinoma cell lines; conditions: Homo sapiens; HeLa cells
[2] = tested on: blood cancer cell lines (e.g. HL-60, Jurkat, Raji, Ramos, Daudi, MOLT-4); test: Cell based assay, cell viability (CellTiter-Glo), blood cancer cell lines; conditions: Homo sapiens
Summary of the method: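 Following a 24 h pre-culture in plates, cells receive test compound (final 0 to 2 μM) for 72 hours. Luminescent quantitation of cellular ATP gives viability.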

[3] = MV4-11, blood cancer cell line MV-4-11, 72 hours, read-out: IC50, MV-4-11
[4] = blood cancer cell line Daudi, 72 hours, read-out: IC50, Daudi
[5] = blood cancer cell line HL-60, 72 hours, read-out: IC50, HL-60
[6] = blood cancer cell line Jurkat, 72 hours, read-out: IC50, Jurkat
[7] = blood cancer cell line MOLT-4, 72 hours, read-out: IC50, MOLT-4
[8] = blood cancer cell line Raji, 72 hours, read-out: IC50, Raji
[9] = blood cancer cell line Ramos (RA 1), 72 hours, read-out: IC50, Ramos (RA 1)
[10] = blood cancer cell line U-937, 72 hours, read-out: IC50, U-937

Row | Compound | IC50 [1] [µM] | IC50 [2, 3] [nM] | IC50 [2, 4] [nM] | IC50 [2, 5] [nM] | IC50 [2, 6] [nM] | IC50 [2, 7] [nM] | IC50 [2, 8] [nM] | IC50 [2, 9] [nM] | IC50 [2, 10] [nM]
1 | CC(=O)c1c(SCc2cccc(F)c2)[nH]c2c(Br)ccc(Cl)c2c1=O [Compound 49, 3-acetyl-8-bromo-5-chloro-2-((3-fluorobenzyl)thio)quinolin-4(1H)-one] | > 10 | > 2000 | > 2000 | > 2000 | > 2000 | > 2000 | > 2000 | > 2000 | > 2000
2 | CC(=O)c1c(SCc2ccccc2)nc2c(Br)ccc(Cl)c2c1O [Compound 52, 1-(2-(benzylthio)-8-bromo-5-chloro-4-hydroxyquinolin-3-yl)ethan-1-one] | > 10 | > 2000 | > 2000 | > 2000 | > 2000 | > 2000 | > 2000 | > 2000 | > 2000
3 | CC(=O)c1c([S+]([O-])Cc2ccccc2)nc2c(Br)ccc(Cl)c2c1O (stereo not drawn) [Compound 53, 1-(2-(benzylsulfinyl)-8-bromo-5-chloro-4-hydroxyquinolin-3-yl)ethan-1-one] | > 10 | > 2000 | > 2000 | > 2000 | > 2000 | > 2000 | > 2000 | > 2000 | > 2000
4 | CC(=O)c1c(S(=O)(=O)Cc2ccccc2)nc2c(Br)ccc(Cl)c2c1O [Compound 54, 1-(2-(benzylsulfonyl)-8-bromo-5-chloro-4-hydroxyquinolin-3-yl)ethan-1-one] | > 10 | > 2000 | > 2000 | > 2000 | > 2000 | > 2000 | > 2000 | > 2000 | > 2000
5 | CC(=O)c1c([S+]([O-])Cc2ccccc2C#N)[nH]c2c(Br)ccc(Cl)c2c1=O (stereo not drawn) [Compound 58, 2-(((3-acetyl-8-bromo-5-chloro-4-oxo-1,4-dihydroquinolin-2-yl)sulfinyl)methyl)benzonitrile] | > 10 | 970 | 1980 | 870 | 990 | 1240 | 940 | 1250 | 730
6 | COCSc1[nH]c2c(Br)ccc(Cl)c2c(=O)c1C(C)=O [Compound 61, 3-acetyl-8-bromo-5-chloro-2-((methoxymethyl)thio)quinolin-4(1H)-one] | > 10 | > 2000 | > 2000 | > 2000 | > 2000 | > 2000 | > 2000 | > 2000 | > 2000
7 | CC(=O)c1c(S)[nH]c2c(Br)ccc(Cl)c2c1=O [Compound 62, 3-acetyl-8-bromo-5-chloro-2-mercaptoquinolin-4(1H)-one] | > 10 | > 2000 | > 2000 | > 2000 | > 2000 | > 2000 | > 2000 | > 2000 | > 2000
8 | CC(=O)c1c([S+]([O-])Cc2ccc(C(=O)c3ccccc3)cc2)[nH]c2c(Br)ccc(Cl)c2c1=O (stereo not drawn) [Compound 63, 3-acetyl-2-((4-benzoylbenzyl)sulfinyl)-8-bromo-5-chloroquinolin-4(1H)-one] | > 10 | > 2000 | > 2000 | > 2000 | > 2000 | > 2000 | > 2000 | > 2000 | > 2000
9 | CC(=O)c1c([S+]([O-])CC#N)[nH]c2c(Br)ccc(Cl)c2c1=O (stereo not drawn) [Compound 65, 2-((3-acetyl-8-bromo-5-chloro-4-oxo-1,4-dihydroquinolin-2-yl)sulfinyl)acetonitrile] | > 10 | > 2000 | > 2000 | > 2000 | > 2000 | > 2000 | > 2000 | > 2000 | > 2000
10 | CC(=O)c1c(SCC#N)[nH]c2c(Br)ccc(Cl)c2c1=O [Compound 66, 2-((3-acetyl-8-bromo-5-chloro-4-oxo-1,4-dihydroquinolin-2-yl)thio)acetonitrile] | > 10 | > 2000 | > 2000 | > 2000 | > 2000 | > 2000 | > 2000 | > 2000 | > 2000
11 | CC(=O)c1c(S/C=C\C(=O)O)[nH]c2c(Br)ccc(Cl)c2c1=O [Compound 67, (Z)-3-((3-acetyl-8-bromo-5-chloro-4-oxo-1,4-dihydroquinolin-2-yl)thio)acrylic acid] | > 10 | > 2000 | > 2000 | > 2000 | > 2000 | > 2000 | > 2000 | > 2000 | > 2000
12 | CC(=O)c1c([S+]([O-])Cc2ccc(S(F)(F)(F)(F)F)cc2)[nH]c2c(Br)ccc(Cl)c2c1=O (stereo not drawn) [Compound 68, 3-acetyl-8-bromo-5-chloro-2-((4-(pentafluoro-16-sulfanyl)benzyl)sulfinyl)quinolin-4(1H)-one] | > 2 | 1300 | 1210 | 1710 | 1000 | 1070 | 1020 | 1660 | > 2000
13 | CC(=O)c1c([S+]([O-])Cc2ccc(S(F)(F)(F)(F)F)cc2F)[nH]c2c(Br)ccc(Cl)c2c1=O (stereo not drawn) [Compound 69, 3-acetyl-8-bromo-5-chloro-2-((2-fluoro-4-(pentafluoro-16-sulfanyl)benzyl)sulfinyl)quinolin-4(1H)-one] | > 10 | 1470 | 1430 | 1880 | 1130 | 1300 | 1110 | 1870 | > 2000
14 | CC(=O)c1c([S+]([O-])Cc2cccc(S(F)(F)(F)(F)F)c2)[nH]c2c(Br)ccc(Cl)c2c1=O (stereo not drawn) [Compound 77, 3-acetyl-8-bromo-5-chloro-2-((3-(pentafluoro--sulfanyl)benzyl)sulfinyl)quinolin-4(1H)-one] | > 10 | > 2000 | 1420 | > 2000 | 1120 | 1350 | 1330 | > 2000 | > 2000
15 | CC(=O)c1c([S+]([O-])Cc2ccc(SC(F)(F)F)cc2)[nH]c2c(Cl)ccc(Cl)c2c1=O (stereo not drawn) [Compound 79, 3-acetyl-5,8-dichloro-2-((4-((trifluoromethyl)thio)benzyl)sulfinyl)quinolin-4(1H)-one] | > 10 | > 2000 | > 2000 | > 2000 | > 2000 | > 2000 | > 2000 | > 2000 | > 2000
16 | CC(=O)c1c([S+]([O-])Cc2ccc(S(F)(F)(F)(F)F)cc2)[nH]c2c(F)ccc(F)c2c1=O (stereo not drawn) [Compound 80, 3-acetyl-5,8-difluoro-2-((4-(pentafluoro--sulfanyl)benzyl)sulfinyl)quinolin-4(1H)-one] | > 10 | > 2000 | > 2000 | > 2000 | > 2000 | > 2000 | > 2000 | > 2000 | > 2000
17 | CC(=O)c1c([S+]([O-])Cc2ccc(C(F)(F)F)o2)[nH]c2c(F)ccc(F)c2c1=O (stereo not drawn) [Compound 81, 3-acetyl-5,8-difluoro-2-(((5-(trifluoromethyl)furan-2-yl)methyl)sulfinyl)quinolin-4(1H)-one] | > 10 | > 2000 | > 2000 | > 2000 | > 2000 | > 2000 | > 2000 | > 2000 | > 2000
18 | CC(=O)c1c([S+]([O-])Cc2cc(C)on2)[nH]c2c(F)ccc(F)c2c1=O (stereo not drawn) [Compound 82, 3-acetyl-5,8-difluoro-2-(((5-methylisoxazol-3-yl)methyl)sulfinyl)quinolin-4(1H)-one] | > 10 | > 2000 | > 2000 | > 2000 | > 2000 | > 2000 | > 2000 | > 2000 | > 2000
19 | CC(C)C(=O)c1c([S+]([O-])Cc2ccc(SC(F)(F)F)cc2)[nH]c2c(F)ccc(F)c2c1=O (stereo not drawn) [Compound 85, 5,8-difluoro-3-isobutyryl-2-((4-((trifluoromethyl)thio)benzyl)sulfinyl)quinolin-4(1H)-one] | > 10 | > 2000 | > 2000 | > 2000 | > 2000 | > 2000 | > 2000 | > 2000 | > 2000
